Like-named read-outs stand apart in the source and are kept apart here. Marks after values point to notes of the source that are not given here.
Columns and labels:
[1] = test system: LPS-induced tonsillitis; assay: LPS-induced tonsillitis model (E. coli LPS into cervical lymph node); type: in vivo; settings: Diclofenac (11 mg/kg)
Description: This example is aimed at evaluating the activity of glutaryl histamine on experimental model of tonsillitis. LPS-induced tonsillitis is one of the most adequate models for the study of the pathogenesis, pathomorphological changes and action of pharmacological medicaments on the course of this disease.
Tonsillitis was induced under anesthesia by administration of a solution of E. coli lipopolysaccharide (LPS) (Sigma) in normal physiological solution in a dose of 20 μg/kg, by 10 μl to the right upper lymph node (Inn. Cervicales superficiales). After administration, the lymph nodes were put under superficial neck muscles and then the skin was stitched. The wound was treated with streptocide. The animal was placed into a post-operation cage.
The tested medicament was administered once daily in a given dose strictly at the stated time for three days before the induction of tonsillitis and 10 days after. Normal saline solution was used as placebo.
Immediately after euthanasia, the animals were subjected to necropsy, the affected and intact lymph nodes were removed and weighed.
The lymph nodes derived from the half of animals from each group were being frozen after removal in a refrigerating chamber at −25° C. for 72 hours. Then the lymph nodes were lyophilized.
In a half of animals from each group (7), the affected lymph nodes were subjected to histological analysis. After euthanasia, intact and affected lymph nodes were removed from each animal. […] Sections with a thickness of 4 to 6 μm were prepared from the paraffin blocks, stained with hematoxylin and eosin to reveal typical pathological processes and study required parameters using light-optical microscope Leica DM LS (magnification 200× and 400×).
Weights of intact and affected lymph nodes were compared and the nodes also were lyophilized to evaluate an effect of the medicaments on the swelling degree and adequacy of the model of tonsillitis.
The protein-synthetic function of the liver and a systemic effect of the medicaments on organism were evaluated in total protein (TP) analysis.

[2] = test system: acute rhinosinusitis induced by intranasal administration of formalin; type: in vivo, rat
Description: Activity of glutaryl histamine was studied in an experimental model of acute rhinosinusitis (ARS).
Administration of 20 μl of 7.5% formalin to the rat nasal passages leads to the development of a clinical picture similar to the symptoms of acute rhinosinusitis in a human.
The tested medicament and reference medicaments were administered for 7 days after administration of 7.5% formalin. Normal saline solution was used as placebo. The animals were subjected to euthanasia on day 8 after induction of experimental acute rhinosinusitis by method of air embolism. During necropsy, nasal passages of all animals were sampled. The obtained material was placed into 10% neutral-buffered formalin for further histological analysis.
The mucous and submucous membranes of both nasal passages (respiratory and olfactory regions) of the experimental animals were subjected to a morphological analysis of the specific activity of glutaryl histamine.
After the clinical phase of the experiment, the material derived from the animals was subjected to the standard treatment to prepare histological paraffin sections with a thickness of 3 to 5 μm. The sections were stained with hematoxylin and eosin for a microscopic study. Comparison and histological analysis of changes were performed versus the group of intact rats.
The main pathological processes inherent in experimental acute rhinosinusitis, such as vascular congestion in mucous membrane, hyperplasia and necrosis of the epithelium, the number of caliciform cells within 1 mm of the mucous membrane in the nasal septum, were evaluated by a semi-quantitative method to evaluate the degree of pathophysiological changes in histological, histochemical and morphological studies.
The microscopic analysis of exudative disorder developed in rats with acute rhinitis was aimed at measuring the number of caliciform cells comprising acidic mucus (Table 3).

[3] = test system: Staphylococcus aureus (mouse-adapted MRSA strain 5); assay: animal or person; type: in vivo, mice
Description: Tested medicament was glutaryl histamine in doses of 15, 30 and 45 mg/kg. Solutions of the tested medicament for oral administration were prepared ex tempore in stream water. Ampicillin (in intravenous administration) was used as a therapeutic preparation since it is the most experimentally studied antibiotic approved in clinical practice many years ago. Levofloxacin was used as a positive control (in oral administration).
Staphylococcus aureus was used as an infectious agent (mouse-adapted MRSA strain 5, collection from GU NIINA im.G.F. Gauze RAMN).
Firstly, there was determined a lethal dose (LD100) of staphylococcus when intravenously administered to this line of mice with a certain weight. Fatal cases among mice were registered every day for ten days. […] After that, there was determined the dose of ampicillin providing a survival rate of 20% of mice infected with staphylococcus MRSA taken in a lethal dose. For this purpose, mice were housed into cages by 10 animals and infected with a lethal dose of staphylococcus. One hour later, each mouse was intravenously administered ampicillin in doses of 30, 60, 90, 120, 150, and 180 mg/kg. A group of mice infected with a lethal dose of staphylococcus without the treatment was considered as a control group. Fatal cases among mice were registered every day for ten days.
The next step of the experiment was to study an effect of combined administration of glutaryl histamine with ampicilline on a model of MRSA-induced staphylococcal sepsis in mice.
In the experiment, the mice were housed in following groups of 10 animals per cage: […]

[4] = test system: Escherichia coli (mouse-adapted strain 4300); assay: animal or person; type: in vivo, mice
Description: Escherichia coli (mouse-adaptedstrain 4300, Institute collection) was used as an infectious agent. Mice were infected intravenously.
Firstly, there were determined a lethal dose (LD100) of Escherichia coli to be intravenously administered to this line of mice with a certain weight. Fatal cases among mice were registered every day for ten days. […] For this purpose, mice were housed into cages (10 animals per cage) and infected with a lethal dose of Escherichia coli. One hour after each mouse was administered orally levofloxacin in doses of 1, 2, 4, 6, 8, 10, and 12 mg/kg. A group of mice infected with a lethal dose of Escherichia coli without the treatment was considered as a control group. Fatal cases among mice were registered every day for ten days.
The next step of the experiment was to study an effect of combined administration of glutaryl histamine and levofloxacin on a model of E. coli sepsis in mice.
(§1) In the experiment, mice were housed in following groups (10 animals per cage):
Glutaryl histamine was administered orally in the corresponding doses to mice of groups 3, 4, 5, 6, 7, and 8 for 5 days. Five day after, all groups of mice were intravenously administered 0.2 ml of Escherichia coli in the lethal dose. […] After infection and administration of levofloxacin, glutaryl histamine was administered to mice of groups 3-8 for additional 5 days. During the experiment, the animals were observed every day, and fatal cases were registered (see Table 14).

[5] = test system: Staphylococcus aureus (mouse-adapted strain 10); assay: animal or person; type: in vivo, mice
Description: The tested medicament was glutaryl histamine in doses of 15, 30 and 45 mg/kg. Solutions of the tested medicament for oral administration were prepared ex tempore. Levofloxacin (in oral administration) was used as a therapeutic preparation since this substance was the most experimentally studied antibiotic approved in clinical practice many years ago.
Staphylococcus aureus (mouse-adaptedstrain 10) was used as an infectious agent. Mice were infected intravenously.
Firstly, there was determined a lethal dose (LD100) of staphylococcus to be intravenously administered to this line of mice having a certain weight. Fatal cases among mice were registered every day for ten days. The lethal dose was 3×10^8 CFU/mouse. […] For this purpose, mice were housed into cages (10 animals per cage) and infected with a lethal dose of staphylococcus. One hour after each mouse was administered orally levofloxacin in doses of 1, 2, 4, 6, 8, 10, and 12 mg/kg. A group of mice infected with a lethal dose of staphylococcus without the treatment was considered as a control group. Fatal cases among mice were registered every day for ten days.
The next step of the experiment was to study an effect of combined administration of glutaryl histamine and levofloxacin on a model of staphylococcal sepsis in mice.
as §1
Glutaryl histamine was administered orally in the corresponding doses to the mice of groups 3, 4, 5, 6, 7, and 8 for 5 days. Five day after, all groups of mice were intravenously administered with 0.2 ml of Staphylococcus aureus in the lethal dose. […] After infection and administration of levofloxacin, glutaryl histamine was administered to mice of groups 3-8 for additional 5 days. During the experiment, the animals were observed every day, and fatal cases were registered (see Table 13).

[6] = Diclofenac 11 mg/kg, n = 10, listed as diclofenac
[7] = group 3: levofloxacin 4 mg/ml per os one time
[8] = levofloxacin 20 mg/kg, tenth day
[9] = levofloxacin 2.65 mg/kg, tenth day

## O=C(O)Cc1ccccc1Nc1c(Cl)cccc1Cl [Diclofenac, diclofenac, reference compound]
[1]
  Mortality rate (%): 29%
  The number of died animals/initial number of animals in a group: 4/14
[1]; M ± m
  Area of germinal centers of lymphoid follicles in affected lymph nodes: 0.074 ± 0.007* mm^2
  Weight difference between affected and intact lymph nodes: 16.3 ± 1.4 mg
[2]; Diclofenac 11 mg/kg, n = 10
  Mucopurulent catarrh (number of rats): 7
  Mucous catarrh (number of rats): 3
  Without changes (number of rats, mucous membrane in the nasal passages, macroscopic): 0
[2]; [6]
  Mucopurulent catarrh (number of rats): four
  Mucous catarrh (number of rats): three
[2]; Diclofenac (11 mg/kg), M ± m
  The number of caliciform cells within 1 mm of the mucosal membrane of the nasal septum: 31.8 ± 1.9* **

## C[C@H]1COc2c(N3CCN(C)CC3)c(F)cc3c(=O)c(C(=O)O)cn1c23 [levofloxacin, reference compound]
[3]; Staphylococcus aureus, MRSA, po
  ED50: 4 mg/kg
[3]; day 1, group 3: levofloxacin 4 mg/ml per os one time
  died/survived animals: 0/10
[3]; day 2, group 3: levofloxacin 4 mg/ml per os one time
  died/survived animals: 0/10
[3]; day 3, group 3: levofloxacin 4 mg/ml per os one time
  died/survived animals: 0/10
[3]; day 4, group 3: levofloxacin 4 mg/ml per os one time
  died/survived animals: 1/9
[3]; day 5, group 3: levofloxacin 4 mg/ml per os one time
  died/survived animals: 2/8
[3]; day 6, group 3: levofloxacin 4 mg/ml per os one time
  died/survived animals: 3/7
[3]; day 7, group 3: levofloxacin 4 mg/ml per os one time
  died/survived animals: 4/6
[3]; day 8, group 3: levofloxacin 4 mg/ml per os one time
  died/survived animals: 5/5
[3]; day 9, group 3: levofloxacin 4 mg/ml per os one time
  died/survived animals: 5/5
[3]; day 10, group 3: levofloxacin 4 mg/ml per os one time
  died/survived animals: 5/5
[3]; [7]
  Mortality rate (%): 50%
  Survival rate (%): 50%
[4]; Escherichia coli, po, read-out: ED50 (50% effective dose)
  ED50: 2.97 mg/kg
[4]; day 1, levofloxacin 20 mg/kg
  died/survived animals: 0/10
[4]; day 2, levofloxacin 20 mg/kg
  died/survived animals: 0/10
[4]; day 3, levofloxacin 20 mg/kg
  died/survived animals: 0/10
[4]; day 4, levofloxacin 20 mg/kg
  died/survived animals: 1/9
[4]; day 5, levofloxacin 20 mg/kg
  died/survived animals: 2/8
[4]; day 6, levofloxacin 20 mg/kg
  died/survived animals: 3/7
[4]; day 7, levofloxacin 20 mg/kg
  died/survived animals: 4/6
[4]; day 8, levofloxacin 20 mg/kg
  died/survived animals: 5/5
[4]; day 9, levofloxacin 20 mg/kg
  died/survived animals: 5/5
[4]; day 10, levofloxacin 20 mg/kg
  died/survived animals: 5/5
[4]; [8]
  Mortality rate (%): 50%
  Survival rate (%): 50%
[5]; Staphylococcus aureus, po, read-out: ED50 (50% effective dose)
  ED50: 2.65 mg/kg
[5]; day 1, levofloxacin 2.65 mg/kg
  died/survived animals: 0/10
[5]; day 2, levofloxacin 2.65 mg/kg
  died/survived animals: 0/10
[5]; day 3, levofloxacin 2.65 mg/kg
  died/survived animals: 1/9
[5]; day 4, levofloxacin 2.65 mg/kg
  died/survived animals: 2/8
[5]; day 5, levofloxacin 2.65 mg/kg
  died/survived animals: 4/6
[5]; day 6, levofloxacin 2.65 mg/kg
  died/survived animals: 4/6
[5]; day 7, levofloxacin 2.65 mg/kg
  died/survived animals: 4/6
[5]; day 8, levofloxacin 2.65 mg/kg
  died/survived animals: 5/5
[5]; day 9, levofloxacin 2.65 mg/kg
  died/survived animals: 5/5
[5]; day 10, levofloxacin 2.65 mg/kg
  died/survived animals: 5/5
[5]; [9]
  Mortality rate (%): 50%
  Survival rate (%): 50%
